Laboratory results from ChEMBL document CHEMBL4765275, “Discovery of novel tertiary amide derivatives as NEDDylation pathway activators to inhibit the tumor progression in vitro and in vivo” (Eur J Med Chem, 2020).

These compounds were tested on MGC-803 (assay: Antiproliferative activity against human MGC-803 cells measured after 48 hrs by MTT assay). Conditions: MGC-803, 48 h.
Type: functional, cell-based
For `COc1cc(N(Cc2ccccc2)C(=O)Cc2cccs2)cc(OC)c1OC`, the IC50 was 22 µM. `COc1ccc(CN(C(=O)Cc2cccc(OC)c2)c2cc(OC)c(OC)c(OC)c2)cc1` gave an IC50 of 1.06 µM. Work on `COc1cc(N(Cc2ccc(C(C)(C)C)cc2)C(=O)Cc2cccs2)cc(OC)c1OC` yielded an IC50 of 22.8 µM. Work on `COc1ccc(CN(C(=O)C(c2ccccc2)c2ccccc2)c2cc(OC)c(OC)c(OC)c2)cc1` yielded an IC50 greater than 80 µM. `COc1cc(N(Cc2ccc(Br)cc2)C(=O)Cc2cccs2)cc(OC)c1OC` showed an IC50 of 5.32 µM. Compound `COc1ccc(CN(C(=O)Cc2cccs2)c2cc(OC)c(OC)c(OC)c2)cc1N` has an IC50 of 0.1 µM. `COc1cc(N(Cc2cccc(F)c2)C(=O)Cc2cccs2)cc(OC)c1OC` showed an IC50 of 13.1 µM. For `COc1ccc(CN(C(=O)Cc2cccs2)c2cc(Cl)c(Cl)cc2Cl)cc1`, the IC50 was greater than 80 µM. Work on `COc1ccc(CN(C(=O)Cc2ccc(C)cc2C)c2cc(OC)c(OC)c(OC)c2)cc1` yielded an IC50 of 28.7 µM. In the case of `COc1ccc(CN(C(=O)Cc2cccs2)c2ccc(OC)c(OC)c2)cc1`, the IC50 is reported as greater than 80 µM. Work on `COc1ccc(CN(C(=O)COc2cc(OC)c(OC)c(OC)c2)c2cc(OC)c(OC)c(OC)c2)cc1` yielded an IC50 of 31.2 µM. In the case of `COc1cc(N(Cc2cccc(C)c2)C(=O)Cc2cccs2)cc(OC)c1OC`, the IC50 is reported as 19.7 µM. With `COc1cc(N(Cc2cccc(Cl)c2)C(=O)Cc2cccs2)cc(OC)c1OC` the IC50 was 37 µM. `COc1ccc(CN(C(=O)Cc2cccs2)c2ccc(OC)cc2)cc1` was tested, and the IC50 was greater than 80 µM. For `COc1cc(N(Cc2ccc(Cl)cc2)C(=O)Cc2cccs2)cc(OC)c1OC`, the IC50 was 14.3 µM. With `COc1ccc(CN(C(=O)Cc2ccccc2)c2cc(OC)c(OC)c(OC)c2)cc1` the IC50 was 6.82 µM. For `COc1ccc(CN(C(=O)COc2cccc(Cl)c2)c2cc(OC)c(OC)c(OC)c2)cc1`, the IC50 was 68.7 µM. Compound `COc1ccc(CN(C(=O)COc2ccccc2)c2cc(OC)c(OC)c(OC)c2)cc1` has an IC50 of 22.7 µM. In the case of `COc1cc(N(Cc2ccc(C)cc2)C(=O)Cc2cccs2)cc(OC)c1OC`, the IC50 is reported as 0.84 µM. In the case of `COc1ccc(CN(C(=O)COc2ccc(OC)cc2)c2cc(OC)c(OC)c(OC)c2)cc1`, the IC50 is reported as 6.27 µM. With `COc1ccc(CN(C(=O)Cc2ccc(F)cc2)c2cc(OC)c(OC)c(OC)c2)cc1` the IC50 was 1.81 µM. `COc1ccc(CC(=O)N(Cc2ccc(OC)cc2)c2cc(OC)c(OC)c(OC)c2)cc1` was tested, and the IC50 was 4.37 µM. `COc1ccc(CN(C(=O)Cc2cccs2)c2ccccc2)cc1` showed an IC50 greater than 80 µM. In the case of `COc1cc(N(Cc2ccc(F)cc2)C(=O)Cc2cccs2)cc(OC)c1OC`, the IC50 is reported as 32.6 µM.

What follows are compounds tested on MCF7 (assay: Antiproliferative activity against human MCF7 cells measured after 48 hrs by MTT assay). Conditions: MCF7, 48 h.
Type: functional, cell-based
In the case of `COc1cc(N(Cc2ccccc2)C(=O)Cc2cccs2)cc(OC)c1OC`, the IC50 is reported as 48.8 µM. For `COc1ccc(CN(C(=O)Cc2cccc(OC)c2)c2cc(OC)c(OC)c(OC)c2)cc1`, the IC50 was 1.33 µM. `COc1cc(N(Cc2ccc(C(C)(C)C)cc2)C(=O)Cc2cccs2)cc(OC)c1OC` showed an IC50 of 19.4 µM. Compound `COc1ccc(CN(C(=O)C(c2ccccc2)c2ccccc2)c2cc(OC)c(OC)c(OC)c2)cc1` has an IC50 greater than 80 µM. For `COc1cc(N(Cc2ccc(Br)cc2)C(=O)Cc2cccs2)cc(OC)c1OC`, the IC50 was 6.43 µM. With `COc1ccc(CN(C(=O)Cc2cccs2)c2cc(OC)c(OC)c(OC)c2)cc1N` the IC50 was 2.48 µM. Compound `COc1ccc(CN(C(=O)CSc2ccccn2)c2cc(OC)c(OC)c(OC)c2)cc1` has an IC50 of 16.1 µM. `COc1cc(N(Cc2cccc(F)c2)C(=O)Cc2cccs2)cc(OC)c1OC` was tested, and the IC50 was 27.3 µM. With `COc1ccc(CN(C(=O)Cc2cccs2)c2cc(Cl)c(Cl)cc2Cl)cc1` the IC50 was greater than 80 µM. `COc1ccc(CN(C(=O)Cc2ccc(C)cc2C)c2cc(OC)c(OC)c(OC)c2)cc1` gave an IC50 of 69.4 µM. `COc1ccc(CN(C(=O)Cc2cccs2)c2ccc(OC)c(OC)c2)cc1` was tested, and the IC50 was greater than 80 µM. In the case of `COc1ccc(CN(C(=O)CSc2nc3ccccc3o2)c2cc(OC)c(OC)c(OC)c2)cc1`, the IC50 is reported as 6.68 µM. With `COc1ccc(CN(C(=O)COc2cc(OC)c(OC)c(OC)c2)c2cc(OC)c(OC)c(OC)c2)cc1` the IC50 was 40.7 µM. In the case of `COc1cc(N(Cc2cccc(C)c2)C(=O)Cc2cccs2)cc(OC)c1OC`, the IC50 is reported as 42.6 µM. `COc1ccc(CN(C(=O)CSc2nncs2)c2cc(OC)c(OC)c(OC)c2)cc1` was tested, and the IC50 was 19.4 µM. In the case of `COc1cc(N(Cc2cccc(Cl)c2)C(=O)Cc2cccs2)cc(OC)c1OC`, the IC50 is reported as 42.4 µM. `COc1ccc(CN(C(=O)Cc2cccs2)c2ccc(OC)cc2)cc1` showed an IC50 greater than 80 µM. `COc1cc(N(Cc2ccc(Cl)cc2)C(=O)Cc2cccs2)cc(OC)c1OC` showed an IC50 of 8.78 µM. Work on `COc1ccc(CN(C(=O)Cc2ccccc2)c2cc(OC)c(OC)c(OC)c2)cc1` yielded an IC50 of 2.68 µM. In the case of `COc1ccc(CN(C(=O)COc2cccc(Cl)c2)c2cc(OC)c(OC)c(OC)c2)cc1`, the IC50 is reported as 55.2 µM. `COc1ccc(CN(C(=O)COc2ccccc2)c2cc(OC)c(OC)c(OC)c2)cc1` showed an IC50 of 64.1 µM. `COc1cc(N(Cc2ccc(C)cc2)C(=O)Cc2cccs2)cc(OC)c1OC` gave an IC50 of 1.56 µM. `COc1ccc(CN(C(=O)COc2ccc(OC)cc2)c2cc(OC)c(OC)c(OC)c2)cc1` gave an IC50 of 46.4 µM. Compound `COc1ccc(CN(C(=O)CSc2nnnn2C)c2cc(OC)c(OC)c(OC)c2)cc1` has an IC50 of 14.4 µM. Compound `COc1ccc(CN(C(=O)Cc2ccc(F)cc2)c2cc(OC)c(OC)c(OC)c2)cc1` has an IC50 of 2.52 µM. For `COc1ccc(CC(=O)N(Cc2ccc(OC)cc2)c2cc(OC)c(OC)c(OC)c2)cc1`, the IC50 was 0.18 µM. Compound `COc1ccc(CN(C(=O)Cc2cccs2)c2ccccc2)cc1` has an IC50 greater than 80 µM. `COc1cc(N(Cc2ccc(F)cc2)C(=O)Cc2cccs2)cc(OC)c1OC` showed an IC50 of 50.9 µM.

The compounds below were run on PC-3 (assay: Antiproliferative activity against human PC-3 cells measured after 48 hrs by MTT assay). Conditions: PC-3, 48 h.
Type: functional, cell-based
`COc1cc(N(Cc2ccccc2)C(=O)Cc2cccs2)cc(OC)c1OC` was tested, and the IC50 was 33.9 µM. `COc1ccc(CN(C(=O)Cc2cccc(OC)c2)c2cc(OC)c(OC)c(OC)c2)cc1` was tested, and the IC50 was 3.04 µM. With `COc1cc(N(Cc2ccc(C(C)(C)C)cc2)C(=O)Cc2cccs2)cc(OC)c1OC` the IC50 was 13.8 µM. Work on `COc1ccc(CN(C(=O)C(c2ccccc2)c2ccccc2)c2cc(OC)c(OC)c(OC)c2)cc1` yielded an IC50 greater than 80 µM. `COc1cc(N(Cc2ccc(Br)cc2)C(=O)Cc2cccs2)cc(OC)c1OC` showed an IC50 of 7.68 µM. `COc1ccc(CN(C(=O)Cc2cccs2)c2cc(OC)c(OC)c(OC)c2)cc1N` gave an IC50 of 1.65 µM. With `COc1cc(N(Cc2cccc(F)c2)C(=O)Cc2cccs2)cc(OC)c1OC` the IC50 was 21.4 µM. With `COc1ccc(CN(C(=O)Cc2cccs2)c2cc(Cl)c(Cl)cc2Cl)cc1` the IC50 was greater than 80 µM. `COc1ccc(CN(C(=O)Cc2ccc(C)cc2C)c2cc(OC)c(OC)c(OC)c2)cc1` was tested, and the IC50 was 52.8 µM. `COc1ccc(CN(C(=O)Cc2cccs2)c2ccc(OC)c(OC)c2)cc1` gave an IC50 greater than 80 µM. With `COc1ccc(CN(C(=O)COc2cc(OC)c(OC)c(OC)c2)c2cc(OC)c(OC)c(OC)c2)cc1` the IC50 was greater than 80 µM. For `COc1cc(N(Cc2cccc(C)c2)C(=O)Cc2cccs2)cc(OC)c1OC`, the IC50 was 26.9 µM. `COc1cc(N(Cc2cccc(Cl)c2)C(=O)Cc2cccs2)cc(OC)c1OC` was tested, and the IC50 was 77.9 µM. `COc1ccc(CN(C(=O)Cc2cccs2)c2ccc(OC)cc2)cc1` gave an IC50 greater than 80 µM. `COc1cc(N(Cc2ccc(Cl)cc2)C(=O)Cc2cccs2)cc(OC)c1OC` showed an IC50 of 19.3 µM. With `COc1ccc(CN(C(=O)Cc2ccccc2)c2cc(OC)c(OC)c(OC)c2)cc1` the IC50 was 0.85 µM. In the case of `COc1ccc(CN(C(=O)COc2cccc(Cl)c2)c2cc(OC)c(OC)c(OC)c2)cc1`, the IC50 is reported as 30.5 µM. With `COc1ccc(CN(C(=O)COc2ccccc2)c2cc(OC)c(OC)c(OC)c2)cc1` the IC50 was 19.7 µM. `COc1cc(N(Cc2ccc(C)cc2)C(=O)Cc2cccs2)cc(OC)c1OC` was tested, and the IC50 was 16.9 µM. `COc1ccc(CN(C(=O)COc2ccc(OC)cc2)c2cc(OC)c(OC)c(OC)c2)cc1` gave an IC50 of 66.4 µM. Compound `COc1ccc(CN(C(=O)Cc2ccc(F)cc2)c2cc(OC)c(OC)c(OC)c2)cc1` has an IC50 of 2.38 µM. `COc1ccc(CC(=O)N(Cc2ccc(OC)cc2)c2cc(OC)c(OC)c(OC)c2)cc1` showed an IC50 of 1.49 µM. In the case of `O=c1[nH]cc(F)c(=O)[nH]1` [FLUOROURACIL], the IC50 is reported as 17.3 µM. `COc1ccc(CN(C(=O)Cc2cccs2)c2ccccc2)cc1` showed an IC50 greater than 80 µM. For `COc1cc(N(Cc2ccc(F)cc2)C(=O)Cc2cccs2)cc(OC)c1OC`, the IC50 was 23.1 µM.
